# Experimental data as given in patent US8669251B2, “8-fluorophthalazin-1(2H)-one compounds” (Genentech, Inc., priority 2011, dated 2014).
# System: production of CD69 by B lymphocytes in human whole blood
# Assay: CD69 Whole Blood Assay (CD69 Hu Blood FACS)
# Format: cell-based
# Settings: human whole blood activated with goat F(ab')2 anti-human IgM, 20 hours; CD69 on CD20 positive cells by FACS; Table 1
# Source text: A CD69 Whole Blood Assay can be conducted on Formula I compounds to determine the ability of compounds to inhibit the production of CD69 by B lymphocytes in human whole blood activated by crosslinking surface IgM with goat F(ab′)2 anti-human IgM (Example 907). CD69 is a type II C-type lectin involved in lymphocyte migration and cytokine secretion. CD69 expression represents one of the earliest available indicators of leukocyte activation and its rapid induction occurs through transcriptional activation (Vazquez et al (2009) Jour. of Immunology Published Oct. 19, 2009, doi:10.4049/jimmunol.0900839). Concentration-dependent inhibition of antigen receptor stimulation by selective Btk inhibitors induces cell surface expression of the lymphocyte activation marker CD69 (Honigberg et al (2010) Proc. Natl. Acad. Sci. 107(29):13075-13080). Thus, CD69 inhibition by selective Btk inhibitors may be correlated with therapeutic efficacy of certain B-cell disorders.
# Human blood is obtained from healthy volunteers, with the following restrictions: 1 week drug-free, non-smokers. Blood (approximately 20 mls to test 8 compounds) is collected by venipuncture into Vacutainer® (Becton, Dickinson and Co.) tubes with sodium heparin.
# Solutions of Formula I and II compounds at 10 mM in DMSO are diluted 1:10 in 100% DMSO, then are diluted by three-fold serial dilutions in 100% DMSO for a ten point dose-response curve. The compounds are further diluted 1:10 in PBS and then an aliquot of 5.5 μl of each compound is added in duplicate to a 2 ml 96-well plate; 5.5 μl of 10% DMSO in PBS is added as control and no-stimulus wells. Human whole blood —HWB (100 μl) is added to each well. After mixing the plates are incubated at 37° C., 5% CO2, 100% humidity for 30 minutes. Goat F(ab′)2 anti-human IgM (10 μl of a 500 μg/ml solution, 50 μg/ml final) is added to each well (except the no-stimulus wells) with mixing and the plates are incubated for an additional 20 hours. At the end of the 20 hour incubation, samples are incubated with fluorescent labeled antibodies for 30 minutes, at 37° C., 5% CO2, 100% humidity. Include induced control, unstained and single stains for compensation adjustments and initial voltage settings. Samples are then lysed with PharM Lyse™ (BD Biosciences Pharmingen) according to the manufacturer's instructions. Samples are then transferred to a 96 well plate suitable to be run on the BD Biosciences HTS 96 well system on the LSRII machine. Data acquired and Mean Fluorescence Intensity values were obtained using BD Biosciences DIVA Software. Results are initially analyzed by FACS analysis software (Flow Jo). […] The inhibitory concentration (IC50, IC70, IC90) values are calculated by Prism version 5, using a nonlinear regression curve fit.
row,SMILES,CD69 Hu Blood FACS (IC70) [µM]
1,"CN1CCN(c2ccc(Nc3cc(-c4cccc(-n5ncc6cc(C(C)(C)C)cc(F)c6c5=O)c4CO)cn(C)c3=O)nc2)CC1 [Compound 101, 6-tert-butyl-8-fluoro-2-(2-(hydroxymethyl)-3-(1-methyl-5-(5-(4-methylpiperazin-1-yl)pyridin-2-yl-amino)-6-oxo-1,6-dihydropyridin-3-yl)phenyl)phthalazin-1(2H)-one]",0.024
2,"Cn1cc(-c2cc(F)cc(-n3ncc4cc(C(C)(C)C)cc(F)c4c3=O)c2CO)cc(Nc2ccc(N3CCN(C4COC4)CC3)cn2)c1=O [Compound 102, 6-tert-butyl-8-fluoro-2-(5-fluoro-2-(hydroxymethyl)-3-(1-methyl-5-(5-(4-(oxetan-3-yl)piperazin-1-yl)pyridin-2-ylamino)-6-oxo-1,6-dihydropyridin-3-yl)phenyl)phthalazin-1(2H)-one]",0.012
3,"Cn1cc(-c2ccnc(-n3ncc4cc(C(C)(C)C)cc(F)c4c3=O)c2CO)cc(Nc2ccc(N3CCN(C4COC4)CC3)cn2)c1=O [Compound 103, 6-tert-butyl-8-fluoro-2-(3-(hydroxymethyl)-4-(1-methyl-5-(5-(4-(oxetan-3-yl)piperazin-1-yl)pyridin-2-ylamino)-6-oxo-1,6dihydropyridin-3-yl)pyridin-2-yl)phthalazin-1(2H)-one]",0.013
4,"C[C@H]1CN(C2COC2)CCN1c1ccc(Nc2cc(-c3cc(F)cc(-n4ncc5cc(C(C)(C)C)cc(F)c5c4=O)c3CO)cn(C)c2=O)nc1 [Compound 104, (S)-6-tert-butyl-8-fluoro-2-(5-fluoro-2-(hydroxymethyl)-3-(1-methyl-5-(5-(2-methyl-4-(oxetan-3-yl)piperazin-1-yl)pyridin-2-ylamino)-6-oxo-1,6-dihydropyridin-3-yl)phenyl)phthalazin-1(2H)-one]",0.0329
5,"C[C@H]1CN(C2COC2)CCN1c1ccc(Nc2cc(-c3ccnc(-n4ncc5cc(C(C)(C)C)cc(F)c5c4=O)c3CO)cn(C)c2=O)nc1 [Compound 105, (S)-6-tert-butyl-8-fluoro-2-(3-(hydroxymethyl)-4-(1-methyl-5-(5-(2-methyl-4-(oxetan-3-yl)piperazin-1-yl)pyridin-2-ylamino)-6-oxo-1,6-dihydropyridin-3-yl)pyridin-2-yl)phthalazin-1(2H)-one]",0.006
6,"C[C@@H]1CN(C2COC2)CCN1c1ccc(Nc2cc(-c3cc(F)cc(-n4ncc5cc(C(C)(C)C)cc(F)c5c4=O)c3CO)cn(C)c2=O)nc1 [Compound 107, (R)-6-tert-butyl-8-fluoro-2-(5-fluoro-2-(hydroxymethyl)-3-(1-methyl-5-(5-(2-methyl-4-(oxetan-3-yl)piperazin-1-yl)pyridin-2-ylamino)-6-oxo-1,6-dihydropyridin-3-yl)phenyl)phthalazin-1(2H)-one]",0.0263
7,"C[C@H]1CN(C2COC2)CCN1c1ccc(Nc2cc(-c3cncc(-n4ncc5cc(C(C)(C)C)cc(F)c5c4=O)c3CO)cn(C)c2=O)nc1 [Compound 109, (S)-6-tert-butyl-8-fluoro-2-(4-(hydroxymethyl)-5-(1-methyl-5-(5-(2-methyl-4-(oxetan-3-yl)piperazin-1-yl)pyridin-2-ylamino)-6-oxo-1,6-dihydropyridin-3-yl)pyridin-3-yl)phthalazin-1(2H)-one]",0.012
8,"C[C@@H]1CN(c2ccc(Nc3cc(-c4ccnc(-n5ncc6cc(C(C)(C)C)cc(F)c6c5=O)c4CO)cn(C)c3=O)nc2)[C@@H](C)CN1C1COC1 [Compound 110, 6-tert-butyl-2-(4-(5-(5-((2S,5R)-2,5-dimethyl-4-(oxetan-3-yl)piperazin-1-yl)pyridin-2-ylamino)-1-methyl-6-oxo-1,6-dihydropyridin-3-yl)-3-(hydroxymethyl)pyridin-2-yl)-8-fluorophthalazin-1(2H)-one]",0.0059
